Source: ChEMBL document CHEMBL1201862, “PubChem BioAssay data set” (2004)
The source made the active and inactive calls.

Tests used:
SUMO-activating enzyme = SUMO-activating enzyme (Homo sapiens, UniProt Q9UBT2); assay: blockers of UBC9-mediated SUMO conjugation – biochemical, AlphaScreen, SUMOylation inhibitor project, confirmation (AID 2018); assay type: functional
Cytochrome P450 2C19 = Cytochrome P450 2C19 (Homo sapiens, UniProt P33261); assay: Cytochrome panel assay with activity outcomes. Panel member name: p450-cyp2c19 Compounds with AC50 equal or less than 10 uM are considered active; assay type: functional; conditions: read-out: AC50
Cytochrome P450 2D6 = Cytochrome P450 2D6 (Homo sapiens, UniProt P10635);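 note: CYP2D6 member of a cytochrome P450 panel assay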
Cytochrome P450 3A4 = Cytochrome P450 3A4 (Homo sapiens, UniProt P08684);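 note: CYP3A4 tested as one member of a cytochrome P450 panel screen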
Exodeoxyribonuclease V = biological target: T1, Exodeoxyribonuclease V (Escherichia coli (strain K12), UniProt P04993+P07648+P08394); assay: RecBCD inhibition via phage-restricted bacterial growth – absorbance, V66 E. coli, mutant T4 phage, counter-screen for AddAB inhibitor project, dose response (AID 492957); assay type: functional, cell-based, Escherichia coli str. K-12 substr. MG1655
T1 sequence (P04993 whole entry): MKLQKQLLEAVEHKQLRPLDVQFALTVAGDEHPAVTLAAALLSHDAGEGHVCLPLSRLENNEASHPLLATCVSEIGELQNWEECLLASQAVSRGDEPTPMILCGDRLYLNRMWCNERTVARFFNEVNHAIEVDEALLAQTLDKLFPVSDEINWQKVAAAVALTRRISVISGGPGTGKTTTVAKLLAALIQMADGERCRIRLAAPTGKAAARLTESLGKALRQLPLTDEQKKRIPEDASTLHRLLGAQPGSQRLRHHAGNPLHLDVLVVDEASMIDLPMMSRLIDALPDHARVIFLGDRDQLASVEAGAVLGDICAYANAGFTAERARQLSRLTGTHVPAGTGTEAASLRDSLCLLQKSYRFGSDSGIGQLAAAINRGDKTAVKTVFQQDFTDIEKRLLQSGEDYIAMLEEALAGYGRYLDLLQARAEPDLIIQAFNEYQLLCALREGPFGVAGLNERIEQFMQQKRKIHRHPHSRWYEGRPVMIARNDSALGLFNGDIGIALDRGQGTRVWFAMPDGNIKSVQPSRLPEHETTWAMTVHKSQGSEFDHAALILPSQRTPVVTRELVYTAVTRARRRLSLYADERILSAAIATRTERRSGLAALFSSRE
T1 sequence (P07648 whole entry): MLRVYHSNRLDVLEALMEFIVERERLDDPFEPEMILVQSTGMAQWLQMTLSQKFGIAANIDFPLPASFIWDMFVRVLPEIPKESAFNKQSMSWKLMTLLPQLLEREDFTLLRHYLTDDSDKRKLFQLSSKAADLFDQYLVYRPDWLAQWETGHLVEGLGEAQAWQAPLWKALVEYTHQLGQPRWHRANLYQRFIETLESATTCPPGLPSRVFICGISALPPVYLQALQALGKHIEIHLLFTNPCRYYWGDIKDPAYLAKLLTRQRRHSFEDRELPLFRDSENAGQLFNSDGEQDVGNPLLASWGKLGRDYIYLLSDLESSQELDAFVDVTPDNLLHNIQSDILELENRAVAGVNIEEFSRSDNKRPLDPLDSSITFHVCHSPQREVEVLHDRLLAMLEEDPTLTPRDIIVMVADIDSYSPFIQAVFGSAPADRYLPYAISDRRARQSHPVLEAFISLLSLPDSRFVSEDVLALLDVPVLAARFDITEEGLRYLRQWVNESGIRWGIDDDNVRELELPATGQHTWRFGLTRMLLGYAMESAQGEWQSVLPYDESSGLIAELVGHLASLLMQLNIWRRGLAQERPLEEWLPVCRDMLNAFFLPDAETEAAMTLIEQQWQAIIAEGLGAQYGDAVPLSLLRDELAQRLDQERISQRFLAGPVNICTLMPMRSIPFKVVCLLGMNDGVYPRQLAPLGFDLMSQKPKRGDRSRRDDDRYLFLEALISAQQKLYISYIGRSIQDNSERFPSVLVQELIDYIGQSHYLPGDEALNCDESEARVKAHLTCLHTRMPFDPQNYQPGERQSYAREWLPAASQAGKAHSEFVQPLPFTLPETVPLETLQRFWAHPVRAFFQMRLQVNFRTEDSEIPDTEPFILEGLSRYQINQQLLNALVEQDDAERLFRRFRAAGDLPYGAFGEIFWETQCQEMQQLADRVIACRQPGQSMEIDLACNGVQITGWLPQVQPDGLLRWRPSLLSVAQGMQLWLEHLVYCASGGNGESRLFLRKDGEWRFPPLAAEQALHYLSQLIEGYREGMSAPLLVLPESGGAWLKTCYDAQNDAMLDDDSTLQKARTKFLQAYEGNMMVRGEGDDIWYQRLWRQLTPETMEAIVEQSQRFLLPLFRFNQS
T1 sequence (P08394 whole entry): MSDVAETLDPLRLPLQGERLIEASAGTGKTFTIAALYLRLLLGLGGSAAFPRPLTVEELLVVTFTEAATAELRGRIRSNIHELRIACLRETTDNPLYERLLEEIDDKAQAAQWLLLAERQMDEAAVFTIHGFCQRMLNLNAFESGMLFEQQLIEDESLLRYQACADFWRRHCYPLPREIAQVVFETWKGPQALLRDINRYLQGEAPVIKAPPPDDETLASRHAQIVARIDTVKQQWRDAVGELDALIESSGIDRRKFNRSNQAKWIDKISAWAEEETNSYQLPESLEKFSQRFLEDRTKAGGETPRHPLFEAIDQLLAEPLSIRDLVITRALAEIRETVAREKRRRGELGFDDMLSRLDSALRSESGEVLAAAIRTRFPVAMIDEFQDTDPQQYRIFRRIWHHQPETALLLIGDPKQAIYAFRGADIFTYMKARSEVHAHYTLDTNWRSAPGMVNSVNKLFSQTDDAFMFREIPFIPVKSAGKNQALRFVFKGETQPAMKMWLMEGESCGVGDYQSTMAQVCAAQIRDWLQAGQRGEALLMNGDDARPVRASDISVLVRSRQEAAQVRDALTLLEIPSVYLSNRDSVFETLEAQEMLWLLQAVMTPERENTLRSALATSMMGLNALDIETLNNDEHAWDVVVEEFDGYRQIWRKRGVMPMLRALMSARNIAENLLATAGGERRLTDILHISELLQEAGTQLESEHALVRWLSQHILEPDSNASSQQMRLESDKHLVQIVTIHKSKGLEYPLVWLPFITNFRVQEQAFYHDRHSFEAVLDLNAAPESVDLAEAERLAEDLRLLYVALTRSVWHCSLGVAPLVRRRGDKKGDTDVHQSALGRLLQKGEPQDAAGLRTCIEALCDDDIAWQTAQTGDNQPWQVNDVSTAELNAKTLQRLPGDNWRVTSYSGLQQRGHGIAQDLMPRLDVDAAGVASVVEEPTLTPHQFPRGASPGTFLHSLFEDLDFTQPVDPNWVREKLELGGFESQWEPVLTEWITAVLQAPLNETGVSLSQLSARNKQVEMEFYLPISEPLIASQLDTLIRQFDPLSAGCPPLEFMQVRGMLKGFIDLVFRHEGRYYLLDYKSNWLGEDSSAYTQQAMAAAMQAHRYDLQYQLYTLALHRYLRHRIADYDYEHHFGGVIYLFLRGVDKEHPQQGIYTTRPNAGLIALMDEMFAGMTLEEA

[1] = Counterscreen for AddAB inhibitors: absorbance-based bacterial cell-based high throughput dose response assay for inhibitors of bacterial viability. [Related pubchem assays (depositor defined):AID435030, AID449728, AID449731, AID488942, AID488955, AID488956]; assay type: functional
[2] = biological target: T2, Microphthalmia-associated transcription factor (Homo sapiens, UniProt O75030); assay: reducers of TRPM1 reporter luminescence, concentration series – cell-based, SK-MEL-5, cherry-picked, set 3, MITF inhibitor project, dose response (AID 493073); assay type: functional;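 note: SK-MEL-5 melanoma cells with luciferase driven by the MITF target TRPM1 promoter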
T2 sequence (O75030 whole entry): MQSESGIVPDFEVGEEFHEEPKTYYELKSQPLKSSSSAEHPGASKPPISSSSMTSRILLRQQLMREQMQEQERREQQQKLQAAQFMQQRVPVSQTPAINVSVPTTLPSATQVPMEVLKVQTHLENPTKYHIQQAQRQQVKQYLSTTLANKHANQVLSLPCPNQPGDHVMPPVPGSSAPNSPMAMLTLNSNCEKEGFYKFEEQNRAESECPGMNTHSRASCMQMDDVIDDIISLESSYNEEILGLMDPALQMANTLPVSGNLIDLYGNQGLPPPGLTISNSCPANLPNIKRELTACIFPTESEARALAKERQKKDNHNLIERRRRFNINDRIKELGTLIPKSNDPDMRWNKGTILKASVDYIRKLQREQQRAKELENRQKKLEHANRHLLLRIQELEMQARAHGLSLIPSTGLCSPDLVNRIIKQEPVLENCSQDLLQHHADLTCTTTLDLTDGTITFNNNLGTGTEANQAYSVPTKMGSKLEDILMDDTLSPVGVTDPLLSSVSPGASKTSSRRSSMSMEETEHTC

Nonstructural protein 1 = Nonstructural protein 1 (Influenza A virus, UniProt Q194T2); assay type: functional, Influenza A virus (A/California/07/2009(H1N1))
[3] = MIN6 cell viability loss – mouse insulinoma, cytotoxicity control, dose response (AID 2122); assay type: functional;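 note: confirmatory high-throughput counterscreen run to flag cytotoxic compounds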
[4] = decrease of insulin promoter-GFP reporter – imaging, high-content screening, mouse beta cells (AID 1628); assay type: functional; conditions: MIN6
[5] = Luminescence Cell-Based Dose Retest to Confirm Inhibitors of Cancer Stem Cells. [Related pubchem assays (depositor defined):AID2717, AID2721]; assay type: functional; conditions: Homo sapiens
[6] = biological target: Heat shock protein HSP 90-alpha (Homo sapiens, UniProt P07900); assay type: functional, organism-based
Beta-galactosidase = Beta-galactosidase (Escherichia coli, UniProt Q8VNN2); assay: detection-enzyme interference by beta-gal modulators – biochemical, E. coli enzyme, set 3, artefact control for CCR6 antagonist project, dose response (AID 504712); assay type: functional
SUMO E1/E2 = SUMO E1/E2 (Homo sapiens, UniProt P63279+Q9UBE0+Q9UBT2); assay: SAR analysis of SUMOylation using HTRF in an in-Vitro dose response assay. [Related pubchem assays (depositor defined):AID2006, AID2011, AID2018, AID2069, AID2658]; assay type: functional
HEK293 = assay: cells; conditions: Homo sapiens;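 note: cells exposed to compound for 14 hours overnight before viability readout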
[7] = biological target: T3, Nucleotide-binding oligomerization domain-containing protein 1 (Homo sapiens, UniProt Q9Y239); assay: blockers of NOD1 pathway activity – revised, SAR follow-up (AID 2333); assay type: functional
T3 sequence (Q9Y239 whole entry): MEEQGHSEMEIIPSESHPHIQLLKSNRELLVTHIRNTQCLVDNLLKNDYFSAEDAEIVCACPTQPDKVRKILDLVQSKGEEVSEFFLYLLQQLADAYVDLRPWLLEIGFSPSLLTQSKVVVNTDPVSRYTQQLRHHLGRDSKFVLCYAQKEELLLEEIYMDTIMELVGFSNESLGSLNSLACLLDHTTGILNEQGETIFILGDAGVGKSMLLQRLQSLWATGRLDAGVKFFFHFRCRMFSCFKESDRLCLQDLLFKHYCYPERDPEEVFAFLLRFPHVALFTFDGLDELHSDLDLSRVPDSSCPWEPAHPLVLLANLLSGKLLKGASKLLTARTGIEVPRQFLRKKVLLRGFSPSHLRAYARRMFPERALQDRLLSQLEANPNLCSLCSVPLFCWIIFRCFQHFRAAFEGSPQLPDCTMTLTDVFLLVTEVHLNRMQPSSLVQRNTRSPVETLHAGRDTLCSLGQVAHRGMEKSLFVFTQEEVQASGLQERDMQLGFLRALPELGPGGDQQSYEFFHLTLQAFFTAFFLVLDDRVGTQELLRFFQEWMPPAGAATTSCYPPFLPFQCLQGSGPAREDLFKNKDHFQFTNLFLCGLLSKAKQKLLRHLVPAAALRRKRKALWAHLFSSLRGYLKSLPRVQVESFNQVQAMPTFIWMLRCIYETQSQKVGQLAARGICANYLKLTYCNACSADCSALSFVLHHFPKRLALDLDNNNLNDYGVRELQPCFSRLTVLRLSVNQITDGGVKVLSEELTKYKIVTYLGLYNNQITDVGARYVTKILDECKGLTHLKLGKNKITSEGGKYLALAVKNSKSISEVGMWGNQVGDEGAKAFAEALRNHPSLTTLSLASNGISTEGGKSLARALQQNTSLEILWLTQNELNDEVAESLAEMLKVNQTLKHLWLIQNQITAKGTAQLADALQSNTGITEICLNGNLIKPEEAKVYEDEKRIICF

Tumor necrosis factor = Tumor necrosis factor (Homo sapiens, UniProt P01375); assay: analog potency on TNFa NF-kB signaling – cell-based, revised, SAR follow-up (AID 2337); assay type: functional
[8] = HEK-293T viability loss after treatment – luminescence, T-cell screen hits, cytotoxicity control for TCR NF-kB inhibitor project, dose response (AID 489026); assay type: functional, cell-based;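 note: cells exposed to compound about 14 hours before the viability readout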
Cytochrome P450 2C9 = Cytochrome P450 2C9 (Homo sapiens, UniProt P11712)
Cytochrome P450 2C9, sequence (P11712 whole entry): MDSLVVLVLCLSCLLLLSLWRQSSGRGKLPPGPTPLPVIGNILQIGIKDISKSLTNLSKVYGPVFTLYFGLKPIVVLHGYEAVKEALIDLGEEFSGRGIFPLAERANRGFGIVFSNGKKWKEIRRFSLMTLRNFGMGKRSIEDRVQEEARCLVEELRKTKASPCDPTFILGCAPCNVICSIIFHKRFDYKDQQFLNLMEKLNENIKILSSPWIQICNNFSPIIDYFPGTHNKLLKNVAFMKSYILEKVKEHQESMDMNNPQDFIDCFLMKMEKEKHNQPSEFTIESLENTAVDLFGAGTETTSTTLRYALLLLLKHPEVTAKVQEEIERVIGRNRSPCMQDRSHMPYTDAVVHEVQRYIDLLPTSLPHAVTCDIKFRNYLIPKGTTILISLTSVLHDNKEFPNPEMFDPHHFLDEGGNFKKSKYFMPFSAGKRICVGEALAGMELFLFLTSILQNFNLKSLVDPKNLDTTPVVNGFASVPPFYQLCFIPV

Cytochrome P450 3A4, sequence (P08684 whole entry): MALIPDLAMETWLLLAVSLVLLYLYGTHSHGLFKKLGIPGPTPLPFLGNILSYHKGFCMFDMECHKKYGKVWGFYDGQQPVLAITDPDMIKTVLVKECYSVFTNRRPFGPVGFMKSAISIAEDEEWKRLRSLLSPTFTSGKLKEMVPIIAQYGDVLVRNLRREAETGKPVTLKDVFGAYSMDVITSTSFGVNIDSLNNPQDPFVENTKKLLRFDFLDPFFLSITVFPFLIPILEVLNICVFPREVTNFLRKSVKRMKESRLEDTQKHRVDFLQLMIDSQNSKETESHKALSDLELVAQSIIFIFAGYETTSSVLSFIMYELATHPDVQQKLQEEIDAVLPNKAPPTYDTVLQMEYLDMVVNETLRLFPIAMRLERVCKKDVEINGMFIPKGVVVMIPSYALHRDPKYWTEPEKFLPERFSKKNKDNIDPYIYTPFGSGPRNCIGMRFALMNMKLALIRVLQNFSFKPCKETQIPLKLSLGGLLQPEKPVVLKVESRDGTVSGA
Cytochrome P450 2D6, sequence (P10635 whole entry): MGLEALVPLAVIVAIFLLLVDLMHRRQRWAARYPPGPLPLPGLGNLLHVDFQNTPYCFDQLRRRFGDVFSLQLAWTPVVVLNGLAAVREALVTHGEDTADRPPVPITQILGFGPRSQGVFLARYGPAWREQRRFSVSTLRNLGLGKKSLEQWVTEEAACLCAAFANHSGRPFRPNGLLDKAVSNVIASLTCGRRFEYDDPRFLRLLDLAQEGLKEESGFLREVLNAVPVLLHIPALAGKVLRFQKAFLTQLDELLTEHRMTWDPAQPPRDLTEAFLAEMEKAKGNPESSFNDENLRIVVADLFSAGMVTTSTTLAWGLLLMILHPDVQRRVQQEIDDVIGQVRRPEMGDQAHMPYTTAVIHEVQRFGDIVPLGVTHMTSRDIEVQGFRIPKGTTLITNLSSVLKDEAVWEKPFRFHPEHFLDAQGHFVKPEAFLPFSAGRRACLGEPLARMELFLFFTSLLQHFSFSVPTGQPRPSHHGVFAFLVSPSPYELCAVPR
Beta-galactosidase, sequence (Q8VNN2 whole entry): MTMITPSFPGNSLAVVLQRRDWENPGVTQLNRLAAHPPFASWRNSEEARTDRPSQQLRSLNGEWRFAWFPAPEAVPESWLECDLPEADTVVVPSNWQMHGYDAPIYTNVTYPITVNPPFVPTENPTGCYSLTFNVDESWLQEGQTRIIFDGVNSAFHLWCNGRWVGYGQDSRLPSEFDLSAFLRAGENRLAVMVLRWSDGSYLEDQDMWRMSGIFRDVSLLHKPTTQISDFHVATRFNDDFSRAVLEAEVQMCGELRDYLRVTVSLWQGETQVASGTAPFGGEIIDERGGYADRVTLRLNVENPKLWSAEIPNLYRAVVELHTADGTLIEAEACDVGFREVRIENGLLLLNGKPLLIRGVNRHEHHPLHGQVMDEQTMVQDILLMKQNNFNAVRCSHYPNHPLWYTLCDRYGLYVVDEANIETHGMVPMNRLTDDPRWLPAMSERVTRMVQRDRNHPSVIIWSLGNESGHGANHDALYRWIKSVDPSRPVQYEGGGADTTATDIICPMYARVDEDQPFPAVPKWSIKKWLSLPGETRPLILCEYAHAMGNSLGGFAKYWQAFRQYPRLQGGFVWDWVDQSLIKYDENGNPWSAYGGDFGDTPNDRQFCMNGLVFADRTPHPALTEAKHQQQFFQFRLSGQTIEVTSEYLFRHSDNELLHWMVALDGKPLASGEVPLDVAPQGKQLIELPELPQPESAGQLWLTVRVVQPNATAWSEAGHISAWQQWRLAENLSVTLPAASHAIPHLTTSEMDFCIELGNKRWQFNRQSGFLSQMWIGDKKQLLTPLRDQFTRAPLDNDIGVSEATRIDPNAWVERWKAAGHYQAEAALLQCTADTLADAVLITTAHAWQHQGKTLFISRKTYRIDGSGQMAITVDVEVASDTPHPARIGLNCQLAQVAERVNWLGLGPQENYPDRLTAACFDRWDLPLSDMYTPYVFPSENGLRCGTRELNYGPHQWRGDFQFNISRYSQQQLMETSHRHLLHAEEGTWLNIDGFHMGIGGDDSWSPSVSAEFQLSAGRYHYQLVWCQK
Cytochrome P450 2C19, sequence (P33261 whole entry): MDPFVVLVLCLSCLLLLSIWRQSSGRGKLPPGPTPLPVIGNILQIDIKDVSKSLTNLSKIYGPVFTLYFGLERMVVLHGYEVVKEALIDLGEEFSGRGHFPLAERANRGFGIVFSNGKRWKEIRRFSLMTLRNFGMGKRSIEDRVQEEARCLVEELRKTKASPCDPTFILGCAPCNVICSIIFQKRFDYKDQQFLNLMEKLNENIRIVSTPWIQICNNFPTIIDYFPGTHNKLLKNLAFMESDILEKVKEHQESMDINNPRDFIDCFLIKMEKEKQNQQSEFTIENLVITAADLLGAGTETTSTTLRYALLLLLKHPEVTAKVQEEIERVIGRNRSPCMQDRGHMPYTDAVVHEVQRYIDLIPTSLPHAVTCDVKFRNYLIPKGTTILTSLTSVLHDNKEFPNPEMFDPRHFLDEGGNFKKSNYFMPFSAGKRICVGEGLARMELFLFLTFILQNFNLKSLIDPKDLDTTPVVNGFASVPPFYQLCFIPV
Nonstructural protein 1, sequence (Q194T2 whole entry): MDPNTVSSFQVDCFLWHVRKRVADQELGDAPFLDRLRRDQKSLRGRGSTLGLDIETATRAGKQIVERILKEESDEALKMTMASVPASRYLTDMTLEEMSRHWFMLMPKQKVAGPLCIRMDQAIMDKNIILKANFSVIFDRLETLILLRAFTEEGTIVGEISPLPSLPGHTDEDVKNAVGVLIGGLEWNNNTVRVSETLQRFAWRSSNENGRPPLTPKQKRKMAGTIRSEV
SUMO-activating enzyme, sequence (Q9UBE0 whole entry): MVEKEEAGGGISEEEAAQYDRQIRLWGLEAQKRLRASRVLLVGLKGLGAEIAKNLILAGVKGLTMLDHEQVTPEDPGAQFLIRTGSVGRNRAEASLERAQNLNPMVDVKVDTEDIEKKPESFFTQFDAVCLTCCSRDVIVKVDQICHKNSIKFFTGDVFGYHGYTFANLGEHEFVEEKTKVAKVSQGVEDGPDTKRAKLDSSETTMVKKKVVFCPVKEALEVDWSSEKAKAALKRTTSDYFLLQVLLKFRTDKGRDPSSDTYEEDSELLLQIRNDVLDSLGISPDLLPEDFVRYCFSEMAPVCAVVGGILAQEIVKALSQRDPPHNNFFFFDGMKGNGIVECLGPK
SUMO-activating enzyme, sequence (Q9UBT2 whole entry): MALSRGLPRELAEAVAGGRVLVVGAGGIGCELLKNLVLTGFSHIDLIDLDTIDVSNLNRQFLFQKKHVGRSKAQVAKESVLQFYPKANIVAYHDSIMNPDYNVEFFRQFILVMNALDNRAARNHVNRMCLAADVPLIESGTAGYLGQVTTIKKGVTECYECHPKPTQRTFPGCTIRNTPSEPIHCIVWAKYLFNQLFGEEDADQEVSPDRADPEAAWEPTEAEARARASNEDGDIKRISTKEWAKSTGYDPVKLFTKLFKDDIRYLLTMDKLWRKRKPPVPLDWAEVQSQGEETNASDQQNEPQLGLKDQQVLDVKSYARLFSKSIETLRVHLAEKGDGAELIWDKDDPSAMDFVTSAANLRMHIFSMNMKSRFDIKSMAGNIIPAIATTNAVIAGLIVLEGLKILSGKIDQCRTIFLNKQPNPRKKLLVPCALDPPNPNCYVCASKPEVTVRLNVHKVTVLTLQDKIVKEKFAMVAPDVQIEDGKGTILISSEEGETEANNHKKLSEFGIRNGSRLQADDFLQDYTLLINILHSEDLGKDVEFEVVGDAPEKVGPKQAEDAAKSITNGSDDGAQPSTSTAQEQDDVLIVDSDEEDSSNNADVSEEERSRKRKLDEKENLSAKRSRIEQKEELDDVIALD
SUMO E1/E2, sequence (Q9UBE0 whole entry): as the sequence (Q9UBE0 whole entry) above
SUMO E1/E2, sequence (Q9UBT2 whole entry): as the sequence (Q9UBT2 whole entry) above
SUMO E1/E2, sequence (P63279 whole entry): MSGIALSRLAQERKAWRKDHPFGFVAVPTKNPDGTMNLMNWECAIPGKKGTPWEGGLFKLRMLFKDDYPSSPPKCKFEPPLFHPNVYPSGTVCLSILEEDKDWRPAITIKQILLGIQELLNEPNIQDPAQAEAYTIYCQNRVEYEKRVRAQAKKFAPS
Tumor necrosis factor, sequence (P01375 whole entry): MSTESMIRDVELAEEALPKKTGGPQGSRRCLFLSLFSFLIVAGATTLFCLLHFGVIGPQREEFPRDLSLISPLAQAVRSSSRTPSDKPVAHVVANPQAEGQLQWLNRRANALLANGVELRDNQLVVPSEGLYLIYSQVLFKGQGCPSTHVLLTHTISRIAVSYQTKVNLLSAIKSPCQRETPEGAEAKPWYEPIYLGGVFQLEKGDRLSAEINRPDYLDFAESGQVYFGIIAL

In the case of COc1cccc(NC(=O)Nc2nnc(-c3ccccc3SCc3ccccc3)s2)c1, the IC50 (SUMO-activating enzyme) was 56.6 µM (active).
For COC(=O)[C@H]1[C@@H](c2ccccc2)[C@@]2(c3ccccc3)Oc3ccccc3[C@@]1(O)[C@@H]2O, the AC50 (Cytochrome P450 2C19) was 3.98 µM (inconclusive), the AC50 (Cytochrome P450 2D6) was “inconclusive” and the AC50 (Cytochrome P450 3A4) was 3.16 µM (inconclusive).
In the case of Oc1nncc(N/N=C/c2ccccn2)n1, the IC50 (Exodeoxyribonuclease V) was 27.5 µM (inactive), the IC50 [1] was 32.2 µM (inactive) and the AC50 [2] was 4.65 µM (active). The IC50 (Nonstructural protein 1) was 1.44 µM (active).
With C/C(=N\NC(=O)COc1ccc([N+](=O)[O-])cc1)C(C)(C)C the AC50 (Cytochrome P450 2D6) was “inconclusive” and the AC50 (Cytochrome P450 3A4) was 28.2 µM (inconclusive).
In the case of CNS(=O)(=O)c1cccc(C(=O)OCC(=O)/C=C2/N(C)c3ccccc3C2(C)C)c1, the IC50 [3] was 1.64 µM (active) and the IC50 [4] was 2.64 µM (active).
With O=C1C=CC(=O)N1c1ccc(OC(F)F)cc1 the AC50 [5] was 3.12 µM (active), the AC50 [6] was 1.65 µM (active) and the IC50 (Beta-galactosidase) was > 66.6 µM (inactive).
In the case of COc1cc(-c2n[nH]c(=S)n2/N=C/c2cccn2C)cc(OC)c1OC, the IC50 (SUMO E1/E2) was > 100 µM (inactive).
In the case of O=C(Nc1ccc(F)cc1)c1ccc(CN2CCc3ccccc3C2)cc1, the IC50 (HEK293) was > 20 µM (inactive), the IC50 [7] was 3.11 µM (active) and the IC50 (Tumor necrosis factor) was 2.88 µM (active). For the same compound, the IC50 [8] was > 80 µM (inactive).
For Cc1ccc(N=C(S)N2CCN(C(=O)C3CCCO3)CC2)c(C)c1 (stereo not drawn), the AC50 (Cytochrome P450 2D6) was “inconclusive”, the AC50 (Cytochrome P450 3A4) was 22.4 µM (inconclusive) and the AC50 (Cytochrome P450 2C9) was “inconclusive”.
